# Test results published in PubChem BioAssay (NCI).
#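 Test compounds were applied to cells in 96-well plates for 48 hours at 5 doses. TGI: total growth inhibition.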
# Assays:
# Experiment in all cases: growth of human tumour cells (NCI), 48 h
# [1] = tested on: SNB-75 CNS
# [2] = tested on: SF-268 CNS
# [3] = tested on: HCT-116 colon
# [4] = tested on: K-562 leukemia
# [5] = tested on: SW-620 colon
# [6] = tested on: RXF 393 renal
# [7] = tested on: SK-OV-3 ovarian
# [8] = tested on: BT-549 breast
# [9] = tested on: M14 melanoma
# [10] = tested on: RPMI-8226 leukemia
# [11] = tested on: DU-145 prostate
# [12] = tested on: UACC-257 melanoma
# [13] = tested on: SF-539 CNS
# [14] = tested on: OVCAR-4 ovarian
# [15] = tested on: UACC-62 melanoma
# [16] = tested on: PC-3 prostate
# [17] = tested on: MDA-MB-435
# [18] = tested on: HS 578T breast
# [19] = tested on: MCF7 breast
# [20] = tested on: LOX IMVI melanoma
# [21] = tested on: OVCAR-5 ovarian
# [22] = tested on: 786-0 renal
# [23] = tested on: NCI-H460 lung
# [24] = tested on: SK-MEL-2 melanoma
# [25] = tested on: U251 CNS
# [26] = tested on: SNB-19 CNS
# [27] = tested on: KM12 colon
# [28] = tested on: HOP-92 NSCLC
# [29] = tested on: OVCAR-8 ovarian
# [30] = tested on: CCRF-CEM leukemia
# [31] = tested on: HT29 colon
# [32] = tested on: NCI/ADR-RES ovarian
# [33] = tested on: HCT-15 colon
# [34] = tested on: MALME-3M melanoma
# [35] = tested on: SN12C renal
# [36] = tested on: UO-31 renal
# [37] = tested on: A549 NSCLC
# [38] = tested on: CAKI-1 renal
# [39] = tested on: NCI-H23 lung
# [40] = tested on: MDA-N
# [41] = tested on: SF-295 CNS
# [42] = tested on: IGROV1 ovarian
# [43] = tested on: NCI-H226 lung
# [44] = tested on: A498 renal
# [45] = tested on: T-47D breast
# [46] = tested on: MDA-MB-231 breast
# [47] = tested on: HCC-2998 colon
# [48] = tested on: EKVX NSCLC
# [49] = tested on: OVCAR-3 ovarian
# [50] = tested on: HL-60(TB) leukemia
# [51] = tested on: COLO 205 colon
# [52] = tested on: MOLT-4 leukemia
# [53] = tested on: SK-MEL-28 melanoma
# [54] = tested on: SR leukemia
# [55] = tested on: HOP-62 NSCLC
# [56] = tested on: SK-MEL-5 melanoma
# [57] = tested on: ACHN renal
# [58] = tested on: TK-10 renal
structure (smiles),measurement,setting,value
CCOC(=O)c1cc(C2(O)CCN(CC(C)CC)C2=O)c(-c2cc(C)no2)[nH]1 (configuration not stated),TGI,[1],> 100 µM
same,TGI,[2],> 100 µM
same,TGI,[3],> 100 µM
same,TGI,[4],> 100 µM
same,TGI,[5],> 100 µM
same,TGI,[6],> 100 µM
same,TGI,[7],> 100 µM
same,TGI,[8],> 100 µM
same,TGI,[9],> 100 µM
same,TGI,[10],> 100 µM
same,TGI,[11],> 100 µM
same,TGI,[12],> 100 µM
same,TGI,[13],> 100 µM
same,TGI,[14],> 100 µM
same,TGI,[15],> 100 µM
same,TGI,[16],> 100 µM
same,TGI,[17],> 100 µM
same,TGI,[18],> 100 µM
same,TGI,[19],> 100 µM
same,TGI,[20],> 100 µM
same,TGI,[21],> 100 µM
same,TGI,[22],> 100 µM
same,TGI,[23],> 100 µM
same,TGI,[24],> 100 µM
same,TGI,[25],> 100 µM
same,TGI,[26],> 100 µM
same,TGI,[27],> 100 µM
same,TGI,[28],> 100 µM
same,TGI,[29],> 100 µM
same,TGI,[30],> 100 µM
same,TGI,[31],> 100 µM
same,TGI,[32],> 100 µM
same,TGI,[33],> 100 µM
same,TGI,[34],> 100 µM
same,TGI,[35],> 100 µM
same,TGI,[36],> 100 µM
same,TGI,[37],> 100 µM
same,TGI,[38],> 100 µM
same,TGI,[39],> 100 µM
same,TGI,[40],> 100 µM
same,TGI,[41],> 100 µM
same,TGI,[42],> 100 µM
same,TGI,[43],> 100 µM
same,TGI,[44],> 100 µM
same,TGI,[45],> 100 µM
same,TGI,[46],> 100 µM
same,TGI,[47],> 100 µM
same,TGI,[48],> 100 µM
same,TGI,[49],> 100 µM
same,TGI,[50],> 100 µM
same,TGI,[51],> 100 µM
same,TGI,[52],> 100 µM
same,TGI,[53],> 100 µM
same,TGI,[54],> 100 µM
same,TGI,[55],> 100 µM
same,TGI,[56],> 100 µM
N#Cc1c(-c2ccc(F)cc2)c(-c2ccc(F)cc2)nn(CCO)c1=O,TGI,[1],16.9 µM
same,TGI,[2],> 100 µM
same,TGI,[3],7.04 µM
same,TGI,[4],> 100 µM
same,TGI,[5],> 100 µM
same,TGI,[6],11.2 µM
same,TGI,[7],> 49.6 µM
same,TGI,[8],39.9 µM
same,TGI,[9],> 100 µM
same,TGI,[10],> 100 µM
same,TGI,[11],4.42 µM
same,TGI,[12],> 100 µM
same,TGI,[13],0.553 µM
same,TGI,[14],> 100 µM
same,TGI,[15],> 77 µM
same,TGI,[16],54.7 µM
same,TGI,[17],0.608 µM
same,TGI,[18],12.1 µM
same,TGI,[19],> 100 µM
same,TGI,[20],> 47.6 µM
same,TGI,[21],> 100 µM
same,TGI,[22],> 100 µM
same,TGI,[23],> 25.1 µM
same,TGI,[25],> 100 µM
same,TGI,[26],> 100 µM
same,TGI,[27],4.49 µM
same,TGI,[28],> 100 µM
same,TGI,[30],24.9 µM
same,TGI,[31],> 22.9 µM
same,TGI,[32],22.5 µM
same,TGI,[33],8.6 µM
same,TGI,[34],> 100 µM
same,TGI,[35],> 100 µM
same,TGI,[36],> 100 µM
same,TGI,[37],> 100 µM
same,TGI,[38],> 100 µM
same,TGI,[39],> 78.3 µM
same,TGI,[40],0.121 µM
same,TGI,[41],37.2 µM
same,TGI,[42],> 87.4 µM
same,TGI,[43],> 4.64 µM
same,TGI,[44],> 54.2 µM
same,TGI,[45],> 100 µM
same,TGI,[57],> 81.1 µM
same,TGI,[46],> 71 µM
same,TGI,[47],28.4 µM
same,TGI,[58],> 100 µM
same,TGI,[48],> 76.6 µM
same,TGI,[49],0.69 µM
same,TGI,[50],0.292 µM
same,TGI,[51],2.44 µM
same,TGI,[52],> 100 µM
same,TGI,[53],> 100 µM
same,TGI,[54],> 100 µM
same,TGI,[55],> 76.1 µM
same,TGI,[56],> 4.64 µM
